Measurements reported in patent EP3611183B1, “EPITOPE PEPTIDE SPECIFICALLY RECOGNIZING AUTOANTIBODY AGAINST AQUAPORIN 5, AND USE THEREOF” (Seoul National University R & DB Foundation, priority 2017, dated 2023).

Tested on: anti-AQP5 autoantibodies
Assay: Indirect immunofluorescence (IIF) assay: AQP5 staining by human serum/IgG pre-incubated with peptide
Type: binding
Settings: for inhibition of anti-AQP5 autoantibodies from the control group: by comparison of the mean signal intensities (Fig. 2B); for frequency of recognition by SS vs control samples: seven peptides originating from the AQP5 sequence
Description: This study was done in compliance with the Helsinki Declaration after approvals from the Institutional Review Board of Seoul National University Hospital (IRB number: 0912-011-302) and the Institutional Review Board of Seoul St. Mary's Hospital (IRB number: KC13ONMI0646). From our previous study (12), 13 control and 24 SS serum samples positive for anti-AQP5 IgG were chosen based on the levels of anti-AQP5 IgG and availability. The first 12 control and 12 SS samples had similar low levels of anti-AQP5 IgG, while the rest of the samples had intermediate to high levels. IgG antibodies were purified using a protein A column (ThermoFisher Scientific, Waltham, MA, USA) from the sera of 3 SS patients who were not included in the previous study. A commercial human IgG product purified from pooled normal sera (Sigma-Aldrich Korea, Seoul, Korea) was used as control. All SS patients fulfilled the 2002 American-European Consensus group classification criteria and/or the 2012 American College of Rheumatology criteria. Madin-Darby canine kidney (MDCK) cells expressing full-length human AQP5 (MDCK-AQP5) were maintained in DMEM medium with 10% FBS and 1% penicillin/streptomycin in the presence of G418 (12). A mixture of non-transfected MDCK and MDCK-AQP5 cells (6 × 10^4) was plated onto collagen-coated coverslips of 12 mm diameter. After stimulation with 0.5 mM cAMP for 24 hours, the cells were fixed with 4% paraformaldehyde in PBS (pH 7.4) and subjected to antigen retrieval by incubation in sodium citrate buffer (10 mM sodium citrate, 0.05% Tween-20, pH 6) at 105 °C for 20 min. After blocking with 5% BSA in PBS, the cells were incubated with goat polyclonal antibodies raised against a peptide near the C-terminus of human AQP5 (Santa Cruz, Paso Robles, CA, USA) along with control/SS sera (1:200 dilution) or purified IgG (10 µg) that were pre-incubated overnight with 10 µg synthetic peptides in RIA buffer (10 mM Tris-HCl, 350 mM NaCl, 1% BSA, 1% Triton X-100, 0.5 % Sodium deoxycholate, 0.1% SDS, 10% Horse serum, pH 7.6). Subsequently, the cells were stained with Alexa Fluor 488-conjugated donkey anti-goat IgG (Invitrogen, Carlsbad, CA, USA) and CF™ 594-conjugated rabbit anti-human IgG (Sigma-Aldrich). At least four images of AQP5-expressing cells were randomly selected, based on the goat anti-AQP5 antibody stain, and imaged sequentially for the staining with human IgG using a confocal microscope (Carl Zeiss, Jena, Germany). After coding the images, two individuals blindly determined the relative intensities of the anti-AQP5 human IgG signals by decreasing the brightness of the red signal until all the signals of AQP5 stain disappeared. […] The mean of the Δ brightness was used to express the anti-AQP5 IgG level in each sample. The differences in proportion between two groups were determined by Fisher's exact test. Differences in means between the experimental and control groups were determined by Student's t-test, while the differences among peptides were determined by Oneway ANOVA. All statistical analyses were performed using SPSS (SPSS Inc., Chicago, USA). To analyze the epitopes recognized by anti-AQP5 autoantibodies, MDCK-AQP5 cells were double stained with goat anti-AQP5 antibodies and serum from either control subjects or SS patients that were pre-incubated with each peptide (Fig. 2A). The intensity of AQP5 staining by human IgG in the presence of each peptide was expressed as the percentage of control conditions in the absence of peptides (Table 2). Because the normalized intensities of AQP5 staining in the presence of IRP varied from 69 to 173 depending on the sample, signal intensities smaller than 62.2, which is the mean - 2SD of values in the presence of IRP, were regarded as being inhibited by the corresponding peptide.

Row | Sequence | inhibition of anti-AQP5 autoantibodies from the control group | frequency of recognition by SS vs control samples | control samples inhibited by / recognizing the peptide (14 control samples (13 sera, 1 control-IgG), inhibited = signal intensity smaller than 62.2) | SS samples inhibited by / recognizing the peptide (27 SS samples (24 sera, 3 purified IgG), inhibited = signal intensity smaller than 62.2)
1 | CMNPARSFGC (Epitope of AQP5 Extracellular loop E with Cystein added at N- and C- term) [E2, Extracellular loop E aa 184-191 with added terminal cysteines] | significantly inhibited | more frequently recognized by SS than by control samples |  | 
2 | GCSMNPARSFGC (Epitope of AQP5 Extracellular loop E with Cystein added at C- term) [peptide E1, Extracellular loop E aa 181-191 with C-terminal cysteine added] | significantly inhibited | most frequently recognized | 2 of 14 | 20 of 27
